Structures can show the parent of a compound that is named as a salt.
Columns and labels:
[1] = target: T1, recombinant human liver glycogen phosphorylase (Homo sapiens, UniProt P06737); test: Measuring liver glycogen phosphorylase activity (forward reaction system, NADPH absorbance at 340 nm); type: biochemical
T1 construct: made in house; host or cells: Sf9 insect cells (crude homogenate, diluted, used as the enzyme solution)
T1 sequence (P06737 1-847): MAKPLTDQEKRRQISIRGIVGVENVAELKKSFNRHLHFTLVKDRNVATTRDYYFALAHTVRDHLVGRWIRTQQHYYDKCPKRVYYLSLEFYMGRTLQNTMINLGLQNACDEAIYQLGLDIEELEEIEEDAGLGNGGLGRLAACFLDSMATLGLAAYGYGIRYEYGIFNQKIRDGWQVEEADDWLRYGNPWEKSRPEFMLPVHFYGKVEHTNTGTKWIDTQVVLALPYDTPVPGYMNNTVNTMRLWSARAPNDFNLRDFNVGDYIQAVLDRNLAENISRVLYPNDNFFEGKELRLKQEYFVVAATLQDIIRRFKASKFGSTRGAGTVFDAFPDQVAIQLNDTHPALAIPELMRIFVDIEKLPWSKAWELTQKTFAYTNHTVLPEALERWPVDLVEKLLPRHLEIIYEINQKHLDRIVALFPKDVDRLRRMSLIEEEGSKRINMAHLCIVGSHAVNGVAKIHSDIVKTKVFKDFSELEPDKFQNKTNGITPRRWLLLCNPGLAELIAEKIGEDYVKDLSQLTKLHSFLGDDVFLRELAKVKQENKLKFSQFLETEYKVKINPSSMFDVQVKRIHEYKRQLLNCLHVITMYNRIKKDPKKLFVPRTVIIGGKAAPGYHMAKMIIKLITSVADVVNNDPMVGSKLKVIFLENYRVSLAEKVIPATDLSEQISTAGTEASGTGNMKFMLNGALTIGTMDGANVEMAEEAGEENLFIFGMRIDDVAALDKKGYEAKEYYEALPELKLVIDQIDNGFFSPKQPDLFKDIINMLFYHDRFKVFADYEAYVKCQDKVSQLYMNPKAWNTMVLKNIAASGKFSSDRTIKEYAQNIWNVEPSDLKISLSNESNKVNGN
How it was run: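 Compounds in 1% DMSO; activity taken as blank-subtracted 340 nm absorbance change across 75 min at room temperature. Forward reaction: glucose-1-phosphate released from glycogen converted by coupling enzymes, yielding NADPH; enzyme from recombinant Sf9 homogenate, reaction containing glucose, pH 6.8. IC50 from two-point linear interpolation.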

db/db mice = test: Measuring blood plasma glucose concentration in db/db mice (hypoglycemic effect); type: in vivo; design: key: ++: compounds exhibiting statistically significant hypoglycemic effect at a dose of 10 mg/kg or less; +: compounds exhibiting not significant but obvious hypoglycemic effect at a dose of 10 mg/kg; conditions: for vivo (hypoglycemic effect in db/db mice): db/db mice fasted 4 h, oral administration, plasma glucose 1 and 3 hours after administration, dose 10 mg/kg or less, Dunnett test vs solvent; for vivo (hypoglycemic effect): db/db mice, blood plasma glucose, dose of 10 mg/kg or less
Experimental: 2. Exemplary Test (2) Method for Measuring Blood Plasma Glucose Concentration
Using db/db mice representing an obesity type of diabetic model were used to examine the effect of compound (1) of the present invention on glucose concentrations in plasma. Plasma glucose concentrations of the db/db mice (9-18 weeks old) were measured, and the mice were divided into groups each of 5 or 8 mice such that there would be no difference in the average value of plasma glucose concentrations. After fasting for four hours, the example compound or the solvent (0.5% methylcellulose) was administered orally to the db/db mice, and plasma glucose concentrations were measured 1 and 3 hours after administration. The analysis of the hypoglycemic effect of the example compound was performed through a statistical test at every hour between the group receiving the solvent and the groups of example compound (Dunnett test).

[2] = enzyme inhibitory activity with respect to liver glycogen phosphorylase, class symbols
[3] = human liver glycogen phosphorylase, class symbol

| IC50 [1, 2] [nM] | IC50 [1, 3] [nM] | SMILES | vivo (hypoglycemic effect in db/db mice) (db/db mice) | vivo (hypoglycemic effect) (db/db mice) | vivo (hypoglycemic effect in db/db mice) (db/db mice; 10 mg/kg) |
| --- | --- | --- | --- | --- | --- |
| < 100 | – | Cl.O=C(NCc1ccc(N2CCOCC2)nc1)c1cc(NC(=O)c2cc(F)c(F)cc2Cl)[nH]n1 [Example 5-25] | ++ | – | – |
| – | < 100 | CN(C(=O)c1cc(NC(=O)c2cc(F)c(F)cc2Cl)[nH]n1)c1ccc(-c2nsc(=O)[nH]2)cc1 [Example 6-16] | – | + | – |
| – | < 100 | Cc1cc(F)c(F)cc1C(=O)Nc1cc(C(=O)N(C)c2ccc(C(=O)[O-])cc2)n[nH]1.[Na+] [Example 7-1] | – | + | – |
| < 100 | – | Cc1cccc(CNC(=O)c2cc(NC(=O)c3cc(F)c(F)cc3Cl)[nH]n2)c1 [Example 3-33] | + | – | – |
| < 100 | – | O=C(NCc1ccc(N2CCCCC2)nc1)c1cc(NC(=O)c2cc(F)c(F)cc2Cl)[nH]n1 [Example 5-24] | ++ | – | – |
| < 100 | – | COc1ccnc(CNC(=O)c2cc(NC(=O)c3cc(F)c(F)cc3Cl)[nH]n2)c1 [Example 3-45] | + | – | – |
| < 100 | – | COc1ccc(CNC(=O)c2cc(NC(=O)c3cc(F)c(F)cc3Cl)[nH]n2)cn1 [Example 5-16] | – | – | + |
| < 100 | – | O=C(NCc1ccc(N2CCCC2)nc1)c1cc(NC(=O)c2cc(F)c(F)cc2Cl)[nH]n1 [Example 5-41] | + | – | – |
| < 100 | – | O=C(NCc1ccc(C(F)(F)F)nc1)c1cc(NC(=O)c2cc(F)c(F)cc2Cl)[nH]n1 [Example 3-40] | ++ | – | – |
| – | < 100 | N#Cc1ccc(CNC(=O)c2cc(NC(=O)c3cc(F)c(F)cc3Cl)[nH]n2)cc1 [Example 6-33] | – | + | – |
| < 100 | – | CCOC(=O)CN(C(=O)c1cc(NC(=O)c2cc(F)c(F)cc2Cl)[nH]n1)c1ccccc1 [Example 4-4] | + | – | – |
| < 100 | – | O=C(NCc1ccco1)c1cc(NC(=O)c2cc(F)c(F)cc2Cl)[nH]n1 [Example 3-25] | + | – | – |
| < 100 | – | COC(=O)c1cccc(CNC(=O)c2cc(NC(=O)c3cc(F)c(F)cc3Cl)[nH]n2)c1 [Example 3-38] | + | – | – |
| < 100 | – | CCN(CC)c1ccc(CNC(=O)c2cc(NC(=O)c3cc(F)c(F)cc3Cl)[nH]n2)cn1 [Example 5-29] | ++ | – | – |

The next lines start with the compound.

| SMILES | IC50 [1, 2] [nM] | IC50 [1, 3] [nM] | vivo (hypoglycemic effect in db/db mice) (db/db mice) | vivo (hypoglycemic effect) (db/db mice) | vivo (hypoglycemic effect in db/db mice) (db/db mice; 10 mg/kg) |
| --- | --- | --- | --- | --- | --- |
| COCCCN(C(=O)c1cc(NC(=O)c2cc(F)c(F)cc2Cl)[nH]n1)C1CCCCC1 [Example 1-99] | < 100 | – | + | – | – |
| CCCCN(C(=O)c1cc(NC(=O)c2cc(F)c(F)cc2Cl)[nH]n1)C1CCN(C(=O)C(=O)O)CC1 [Example 1-113] | < 100 | – | ++ | – | – |
| CCCCN(Cc1cccnc1)C(=O)c1cc(NC(=O)c2cc(F)c(F)cc2Cl)[nH]n1 [Example 1-107] | < 100 | – | ++ | – | – |
| CC(C)Oc1ccc(CNC(=O)c2cc(NC(=O)c3cc(F)c(F)cc3Cl)[nH]n2)cn1 [Example 1-31] | < 100 | – | + | – | – |
| CN(C(=O)c1cc(NC(=O)c2cc(F)c(F)cc2Cl)[nH]n1)C1CCCCC1 [Example 1-78] | < 100 | – | + | – | – |
| CCCN(Cc1cccnc1)C(=O)c1cc(NC(=O)c2cc(F)c(F)cc2Cl)[nH]n1 [Example 1-117] | < 100 | – | + | – | – |
| COc1ccc(CN(C(=O)c2cc(NC(=O)c3cc(F)c(F)cc3Cl)[nH]n2)C2CCC2)cn1 [Example 1-127] | < 100 | – | + | – | – |
| Cc1cccnc1CNC(=O)c1cc(NC(=O)c2cc(F)c(F)cc2Cl)[nH]n1 [Example 2-8] | < 100 | – | + | – | – |
| O=C(NCc1cccnc1Cl)c1cc(NC(=O)c2cc(F)c(F)cc2Cl)[nH]n1 [Example 2-24] | < 100 | – | + | – | – |
| CCCCN(CC)C(=O)c1cc(NC(=O)c2cc(F)c(F)cc2Cl)[nH]n1 [Example 1-87] | < 100 | – | + | – | – |
| CC(C)Oc1ncccc1CNC(=O)c1cc(NC(=O)c2cc(F)c(F)cc2Cl)[nH]n1 [Example 1-24] | < 100 | – | + | – | – |
| O=C(NCc1cccc(F)c1F)c1cc(NC(=O)c2cc(F)c(F)cc2Cl)[nH]n1 [Example 1-18] | < 100 | – | + | – | – |
| Cc1cc(C)c(CNC(=O)c2cc(NC(=O)c3cc(F)c(F)cc3Cl)[nH]n2)cn1 [Example 2-4-1, 5-(2-chloro-4,5-difluoro-benzoylamino)-1H-pyrazole-3-carboxylic acid (4,6-dimethyl-pyridin-3-ylmethyl)-amide dihydrochloride] | < 100 | – | ++ | – | – |
| CCCN(Cc1c(Cl)cncc1Cl)C(=O)c1cc(NC(=O)c2cc(F)c(F)cc2Cl)[nH]n1 [Example 1-136] | < 100 | – | + | – | – |
| CCCN(C(=O)c1cc(NC(=O)c2cc(F)c(F)cc2Cl)[nH]n1)C1CCN(C(=O)C(=O)O)CC1 [Example 1-123] | < 100 | – | + | – | – |
| Cc1ccc(CNC(=O)c2cc(NC(=O)c3cc(F)c(F)cc3Cl)[nH]n2)cc1 [Example 1-69] | < 100 | – | + | – | – |
| Cc1nc(N2CCOCC2)sc1CNC(=O)c1cc(NC(=O)c2cc(F)c(F)cc2Cl)[nH]n1 [Example 1-63] | < 100 | – | + | – | – |
| COc1cccc(CNC(=O)c2cc(NC(=O)c3cc(F)c(F)cc3Cl)[nH]n2)c1 [Example 1-67] | < 100 | – | + | – | – |
| COc1nc(C)cc(C)c1CNC(=O)c1cc(NC(=O)c2cc(F)c(F)cc2Cl)[nH]n1 [Example 2-7-1, 5-(2-chloro-4,5-difluoro-benzoylamino)-1H-pyrazole-3-carboxylic acid (2-methoxy-4,6-dimethyl-pyridin-3-ylmethyl)-amide dihydrochloride] | < 100 | – | ++ | – | – |
| CCCN(Cc1ccc(Cl)nc1)C(=O)c1cc(NC(=O)c2cc(F)c(F)cc2Cl)[nH]n1 [Example 1-133] | < 100 | – | + | – | – |
| O=C(NCc1ccc(Cl)cc1)c1cc(NC(=O)c2cc(F)c(F)cc2Cl)[nH]n1 [Example 1-71] | < 100 | – | + | – | – |
| Cc1noc(C)c1CNC(=O)c1cc(NC(=O)c2cc(F)c(F)cc2Cl)[nH]n1 [Example 1-46] | < 100 | – | ++ | – | – |
| O=C(NCc1ccc(OCC(F)(F)F)nc1)c1cc(NC(=O)c2cc(F)c(F)cc2Cl)[nH]n1 [Example 1-39] | < 100 | – | + | – | – |

Reference: patent publication US20070032529A1, “Pyrazole compounds and their use as antidiabetes agents” (Japan Tobacco Inc., priority 2005, published 2007)
